Measurements: patent US20110313672A1, “CELLULAR ANTIOXIDANT ACTIVITY (CAA) ASSAY” (CORNELL UNIVERSITY, priority 2007, published 2011)
Several values for one entry are separate records, joined by “and”; a condition that tells them apart may be missing. Equal values may be shown once. Entries after “also recorded” stand apart in the source; their conditions may differ. Read-outs that look alike come from different tables or passages of the source.

Tests used:
[1] = test system: HepG2 cells; test: Cellular antioxidant activity (CAA) assay: inhibition of peroxyl radical-induced DCFH oxidation; type: cell-based, human; conditions: for CAA value / percent of the antioxidant activity of quercetin in the CAA assay: Example 1; for CAA value: pure compounds, EC50 converted to quercetin equivalents; for percent of the antioxidant activity of quercetin in the CAA assay: summary statement
Description: Cells (e.g., human hepatocellular carcinoma cells; HepG2) are seeded at a density of e.g., 6×10^4/well on a 96-well microplate in 100 μL growth medium/well. It is preferred that only the inside wells of e.g., a 96-well microplate are used for the assay, since the outer wells have increased variation compared to that of the inner wells. Twenty-four hours after seeding the growth medium is removed and the wells are washed with PBS. Triplicate wells are treated for 1 h with 100 μL of a test compound (e.g., pure phytochemical compounds or fruit extracts) plus 25 μM DCFH-DA dissolved in treatment medium.
600 μM ABAP is then applied to the cells in 100 μL HBSS and the 96-well microplate is placed into a plate reader e.g., Fluoroskan Ascent FL plate-reader (ThermoLabsystems, Franklin, Mass.) at 37° C. Emission at 538 nm is measured with excitation at 485 nm, for example every 5 min for 1 h. Each plate should include triplicate control and blank wells: control wells contain cells treated with DCFH-DA and oxidant; blank wells contain cells treated with dye and HBSS without oxidant.
A test compound is assayed in multiple wells of e.g., a 96-well cell culture plate. Some wells are washed with 100 μL of phosphate-buffered saline (PBS) prior to the addition of ABAP, while other wells were not washed prior to the addition of ABAP. It was noted that the measured antioxidant activity of some fruit extracts (e.g., blueberries) was different when a PBS wash was used compared to when there was no PBS wash (see Table 2; FIGS. 3 and 4). This is likely due to non-specific binding of certain antioxidant compounds to the outer membrane, or a reduced uptake of the compound, thus the ratio of antioxidant activity values obtained with a PBS wash compared to a non-PBS wash indicates the bioavailability of the test compound. In order to accurately measure the intracellular antioxidant activity of a test compound, a PBS wash prior to the addition of a peroxyl initiator (e.g, ABAP) is necessary. The values obtained for cells assayed using a PBS wash should be compared to values obtained for the same cells assayed without a PBS wash. One of skill in the art can plan and perform experiments on a test compound in the presence and absence of a PBS wash, in order to accurately assess the intracellular antioxidant capacity of the test compound.
After blank subtraction from the fluorescence readings, the area under the curve of fluorescence versus time is integrated to calculate the cellular antioxidant activity (CAA) value at each concentration of pure phytochemical compound or fruit extract as follows:
where ∫SA is the integrated area under the sample fluorescence versus time curve and ∫CA is the integrated area from the control curve. The median effective dose (EC50) was determined for the pure phytochemical compounds and fruit extracts from the median effect plot of log (fa/fu) vs. log (dose), where fa is the fraction affected and fu is the fraction unaffected by the treatment. To quantify intra-experimental variation, the EC50 values are stated as mean±SD for triplicate sets of data obtained from the same experiment. Inter-experimental variation is obtained for some representative pure phytochemical compounds and fruit extracts by averaging the fluorescence values from triplicate wells in each trial to obtain one EC50 value per experiment and calculating the mean±SD for at least four trials. In each experiment, a standard is used, for example quecetin, thus permitting the cellular antioxidant activities for a test compounds to be expressed as μmol quercetin equivalents (QE)/100 μmol compound. Fruit extracts are expressed as μmol QE/100 g fruit. In order to compare the antioxidant quality of different fruits, cellular antioxidant activity (CAA) is also calculated as μmol QE/100 μmol total phenolics.
Human hepatocellular carcinoma HepG2 cells were seeded at a density of 6×10^4/well on a 96-well microplate in 100 μL growth medium/well. […]

[2] = test system: HepG2 cells; test: in vitro; conditions: human, 24 h
Description: (§1) Briefly, HepG2 cells are seeded at 4×10^4/well on a 96-well plate in 100 μL growth medium and incubated for 24 h at 37° C. The medium is removed and the cells are washed with PBS. Treatments of fruit extracts or antioxidant compounds in 100 μL treatment medium (Williams' Medium E supplemented with 2 mM L-glutamine and 10 mM Hepes) are applied to the cells and the plates are incubated at 37° C. for 24 h. The treatment medium is removed and the cells are washed with PBS. A volume of 50 μL/well methylene blue staining solution (98% HBSS, 0.67% glutaraldehyde, 0.6% methylene blue) is applied to each well and the plate is incubated at 37° C. for 1 h.
(§2) Excess dye is removed by immersing the plate in fresh deionized water until the water appears clear. The excess water should be tapped out of the wells and the plate allowed to air-dry briefly before addition of 100 μL elution solution (49% PBS, 50% ethanol, 1% acetic acid) to each well. The microplate is then placed on a bench-top shaker for 20 minutes to allow uniform elution. The absorbance is read at 570 nm with blank subtraction using, for example a MRX II DYNEX spectrophotometer (DYNEX Inc., Chantilly, Va.). Concentrations of pure compounds or fruit extracts that decrease the absorbance by more than 10% when compared to the control are considered to be cytotoxic.
(§3) Cytotoxicity was measured using the method of Oliver et al. (31) with modifications by our laboratory (32). […] The medium was removed and the cells were washed with PBS. Treatments of fruit extracts or antioxidant compounds in 100 μL treatment medium (Williams' Medium E supplemented with 2 mM L-glutamine and 10 mM Hepes) were applied to the cells and the plates were incubated at 37° C. for 24 h. The treatment medium was removed and the cells were washed with PBS. A volume of 50 μL/well methylene blue staining solution (98% HBSS, 0.67% glutaraldehyde, 0.6% methylene blue) was applied to each well and the plate was incubated at 37° C. for 1 h. The dye was removed and the plate was immersed in fresh deionized water three times, or until the water was clear. The water was tapped out of the wells and the plate was allowed to air-dry briefly before 100 μL elution solution (49% PBS, 50% ethanol, 1% acetic acid) was added to each well. The microplate was placed on a bench-top shaker for 20 minutes to allow uniform elution. The absorbance was read at 570 nm with blank subtraction using the MRX II DYNEX spectrophotometer (DYNEX Inc., Chantilly, Va.). Concentrations of pure compounds or fruit extracts that decreased the absorbance by more than 10% when compared to the control were considered to be cytotoxic.
(§4) The median cytotoxic concentration (CC50) was calculated for each fruit.
(§5) Briefly, HepG2 cells were seeded at 4×10^4/well on a 96-well plate in 100 μL growth medium and incubated for 24 h at 37° C. The medium was removed, and the cells were washed with PBS. Flavonoids in 100 μL growth medium were applied to the cells, and the plates were incubated at 37° C. for 24 h. The medium was removed, and the cells were washed with PBS before a volume of 50 μL/well methylene blue staining solution (98% HBSS, 0.67% glutaraldehyde, 0.6% methylene blue) was applied to each well, and the plate was incubated at 37° C. for 1 h. The dye was removed, and the plate was immersed in fresh deionized water until the water was clear. The water was tapped out of the wells, and the plate was allowed to air-dry briefly before 100 μL of elution solution (49% PBS, 50% ethanol, 1% acetic acid) was added to each well. The microplate was placed on a benchtop shaker for 20 min to allow uniform
(§6) elution. The absorbance was read at 570 nm with blank subtraction using the MRX II Dynex spectrophotometer (Dynex Inc., Chantilly, Va.). The median cytotoxic concentration (CC50) was calculated for each flavonoid.

[3] = in vitro; conditions: human
Description: as §1, §2, §3, §4, §5, §6

[4] = Oxygen radical absorbance capacity (ORAC) assay; conditions: Example 3; flavonoids; mean ± SD, n ≧ 3
Description: The peroxyl radical scavenging efficacy of selected fruits was measured using the ORAC assay (Prior, R. L., et al (2003) J. Agric. Food Chem. 51:3273-3279). Briefly, 20 μL of blank, Trolox standard, or fruit extracts in 75 mM potassium phosphate buffer, pH 7.4 (working buffer), was added to triplicate wells in a black, clear-bottom, 96-well microplate. The triplicate samples were distributed throughout the microplate and were not placed side-by-side, to avoid any effects on readings due to location. In addition, no outside wells were used, as use of those wells results in greater variation. A volume of 200 μL of 0.96 μM fluorescein in working buffer was added to each well and incubated at 37° C. for 20 min, with intermittent shaking, before the addition of 20 μL of freshly prepared 119 mM ABAP in working buffer using a 12-channel pipetter. The microplate was immediately inserted into a Fluoroskan Ascent FL plate reader (ThermoLabsystems) at 37° C. The decay of fluorescence at 538 nm was measured with excitation at 485 nm every 4.5 min for 2.5 h. The areas under the fluorescence versus time curve for the samples minus the area under the curve for the blank were calculated and compared to a standard curve of the areas under the curve for 6.25, 12.5, 25, and 50 μM Trolox standards minus the area under the curve for blank. ORAC values were expressed as mean micromoles of Trolox equivalents (TE) per 100 g of fruit±SD for triplicate data from one experiment.
ORAC measurements were performed as described herein in Example 2.

[5] = Homo sapiens, HepG2, Example 1, Table 1, PBS wash, pure phytochemical compounds, mean ± SD, n=3, read-out: EC50 for inhibition of peroxyl radical-induced DCFH oxidation
[6] = Homo sapiens, HepG2, Example 1, Table 1, no PBS wash, pure phytochemical compounds, mean ± SD, n=3, read-out: EC50 for inhibition of peroxyl radical-induced DCFH oxidation
[7] = CAA assay, either protocol or protocol not specified
[8] = Example 3, Table 7, PBS wash, flavonoids, mean ± SD, n=3
[9] = Example 3, Table 7, no PBS wash, flavonoids, mean ± SD, n=3

Molecule | EC50 [1, 5] | EC50 [1, 6] | EC50 [1, 8] | EC50 [1, 9] | CAA value ([1]; no PBS wash) | percent of the antioxidant activity of quercetin in the CAA assay [1] | Cytotoxicity (cytotoxic concentration) [2] | cellular antioxidant activity, result in words [1, 7] | ORAC [4] | further results
O=c1cc(-c2ccc(O)cc2)oc2cc(O)cc(O)c12 [apigenin] | – | – | no activity | no activity | – | – | – | no cellular antioxidant activity; also recorded: no CAA | 10.7 ± 1.5 bc μmol of TE/μmol | CC50 at 24 h [3]: > 80 µM
O=c1cc(-c2ccccc2)oc2cc(O)cc(O)c12 [chrysin] | – | – | no activity | no activity | – | – | – | no activity | – | CC50 at 24 h [3]: > 200 µM
O=c1c(-c2ccc(O)cc2)coc2cc(O)ccc12 [daidzein] | – | – | no activity | no activity | – | – | – | no cellular antioxidant activity | 8.52 ± 2.11 cde μmol of TE/μmol | CC50 at 24 h ([3]; HepG2 cells): > 100 µM
C[C@@H]1O[C@@H](OC[C@H]2O[C@@H](Oc3c(-c4ccc(O)c(O)c4)oc4cc(O)cc(O)c4c3=O)[C@H](O)[C@@H](O)[C@@H]2O)[C@H](O)[C@H](O)[C@H]1O [rutin] | – | – | no activity | no activity | – | – | – | no activity | – | CC50 at 24 h ([3]; HepG2 cells): > 200 µM
(+)-catechin | – | – | – | – | 2.03±0.24 μmol QE/100 μmol | less than ten percent | – | low or no cellular antioxidant activity; also recorded: low CAA | 12.4±4.0 μmol of TE/μmol and 12.4 ± 4.0 ab μmol of TE/μmol | EC50 ([1]; Example 1, Table 1, PBS wash, pure phytochemical compounds, mean ± SD, n=3, read-out: EC50 for inhibition of peroxyl radical-induced DCFH oxidation): > 500 µM; EC50 ([1]; Example 1, Table 1, no PBS wash, pure phytochemical compounds, mean ± SD, n=3, read-out: EC50 for inhibition of peroxyl radical-induced DCFH oxidation): 292 ± 32 µM; EC50 ([1]; Example 3, Table 7, PBS wash, flavonoids, mean ± SD, n=3, read-out: EC50): > 800 µM; CAA ([1]; Example 3, Table 7, no PBS wash): 2.5 ± 0.1 μmol of QE/100 μmol; EC50 ([1]; Example 3, text, no PBS wash, read-out: EC50): 360 ± 17 µM; cellular antioxidant activity, result in words ([1]; PBS wash protocol): very low, unquantifiable, activity; cellular antioxidant activity, result in words ([1]; PBS wash protocol, listed as catechin): low and low activity at the concentrations tested

Continued, in another order:

EC50 [1, 5] | EC50 [1, 6] | EC50 [1, 8] | EC50 [1, 9] | Molecule | CAA value ([1]; no PBS wash) | percent of the antioxidant activity of quercetin in the CAA assay [1] | Cytotoxicity (cytotoxic concentration) [2] | cellular antioxidant activity, result in words [1, 7] | ORAC [4] | further results
> 500 µM | 67.5 ± 9.4 µM | – | – | O=C1O[C@H]([C@@H](O)CO)C(O)=C1O [Ascorbic acid, ascorbic acid] | 8.84±1.18 μmol QE/100 μmol | less than ten percent | >500 µM | – | – | cellular antioxidant activity, result in words ([1]; PBS wash protocol): low
525 ± 38 µM | 95.3 ± 15.3 µM | – | – | O=C(O)/C=C/c1ccc(O)c(O)c1 [Caffeic acid, caffeic acid] | 5.59±0.70 μmol QE/100 μmol | less than ten percent | >500 µM | – | – | –
> 500 µM | > 250 µM | – | – | COc1cc(/C=C/C(=O)O)ccc1O [Ferulic acid, ferulic acid] | – | – | >500 µM | – | – | cellular antioxidant activity, result in words ([1]; no PBS wash protocol): low activity within the doses tested
